Results taken from patent publication US10899879B2, “Biodegradable trehalose glycopolymers” (THE REGENTS OF THE UNIVERSITY OF CALIFORNIA, priority 2014, dated 2021).

What was measured:
lysozyme = lysozyme (Gallus gallus, UniProt P00698); assay: Stabilization of lysozyme against heat stress with trehalose-CL as excipient; format: biochemical; details: lysozyme 0.02 mg/mL heated to 90° C. for 20 minutes; additive 5 to 25 wt eq.; FIG. 12a
Experimental: Stabilization of model proteins using trehalose-caprolactone as excipient. The ability of these biodegradable trehalose polymers to stabilize proteins was confirmed through heat and lyophilization stress assays. […] Therefore, these proteins were also selected to test the biodegradable trehalose polymers. First, lysozyme was stressed by heating to 90° C. for 20 minutes.
Trehalose-CL and a styrenyl ether trehalose (SET) polymer previously described were also directly compared in their stabilization of lysozyme (FIG. 13) (Lee et al., 2013). […] Thus, the degradable trehalose glycopolymer was similar in stabilization ability to the non-degradable version.

β-galactosidase (β-Gal) = details: three 12-hour desiccation cycles; 25 equivalents of trehalose; FIG. 12b
Experimental: The stabilization of β-Gal against lyophilization stress was also measured. […] The activity of β-Gal was determined by reaction with ortho-nitrophenol galactose (ONPG). When incubated with β-Gal, release of the yellow-colored o-nitrophenol from ONPG can be monitored at 405 nm.
The activity of β-Gal was determined by reaction with ortho-nitrophenol galactose (ONPG). When incubated with β-Gal, release of the yellow-colored o-nitrophenol from ONPG can be monitored at 405 nm.
Lyophilization studies with β-galactosidase were carried out as previously described; β-Gal was subjected to three 12 hour lyophliization cycles before dilution. Activity was assayed by monitoring the hydrolysis of o-nitrophenol galactose (ONPG) at 405 nm.

Chain of lysozyme (P00698 19-147): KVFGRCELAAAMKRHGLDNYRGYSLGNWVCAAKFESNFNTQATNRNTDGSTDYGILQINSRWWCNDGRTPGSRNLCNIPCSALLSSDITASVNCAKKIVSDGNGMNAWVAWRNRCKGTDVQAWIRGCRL

For `OC[C@H]1O[C@H](O[C@H]2O[C@H](CO)[C@@H](O)[C@H](O)[C@H]2O)[C@H](O)[C@@H](O)[C@@H]1O` [trehalose], the “lysozyme native activity retained after heat stress” value (lysozyme) was “not significantly different from the negative control” and the “β-Gal native activity maintained after lyophilization stress, 25 equivalents of additive” value (β-galactosidase (β-Gal)) was “up to 67%”.
